Legend:
[1] = tested on: LTD4 action on respiratory smooth muscle; assay: In Vivo Bronchoconstriction Assay (LTD4-induced); parameters: species or system guinea pig; settings: LTD4 Antagonism, guinea pigs, 2000 units LTD4 IV
Protocol: The compounds are tested in vivo as follows. Adult male fasted Hartly guinea pigs weighing 300-350 g are pretreated with pyrilamine and indomethacin to block the bronchoconstricture effects of endogenous histamine and the synthesis of thromboxane A2 respectively. Compounds of the invention are administered IV or IG at approximate times prior to the IV administration of 2000 units of LTD4. Intratracheal pressure is monitored prior to and subsequent to LTD4 in animals anesthetized with pentobarbital and attached to a rodent respirator. Compounds which antagonize the direct component of LTD4 action on respiratory smooth muscle inhibit intratracheal insufflation pressure increases (P< or =0.05) caused by LTD4. FPL 55712 is used as a control.

[2] = target: T1, guinea pig lung receptors (LTD4 receptor) (Cavia porcellus, UniProt Q2NNR5); assay: Leukotriene (LTD4) Receptor Binding Assay; settings: LTD4 Antagonism; guinea pig lung membrane
T1 construct: guinea pig lung receptors, isolated from guinea pig lung membrane; from tissue; host or cells: guinea pig lung membrane
T1 sequence (Q2NNR5 1-340): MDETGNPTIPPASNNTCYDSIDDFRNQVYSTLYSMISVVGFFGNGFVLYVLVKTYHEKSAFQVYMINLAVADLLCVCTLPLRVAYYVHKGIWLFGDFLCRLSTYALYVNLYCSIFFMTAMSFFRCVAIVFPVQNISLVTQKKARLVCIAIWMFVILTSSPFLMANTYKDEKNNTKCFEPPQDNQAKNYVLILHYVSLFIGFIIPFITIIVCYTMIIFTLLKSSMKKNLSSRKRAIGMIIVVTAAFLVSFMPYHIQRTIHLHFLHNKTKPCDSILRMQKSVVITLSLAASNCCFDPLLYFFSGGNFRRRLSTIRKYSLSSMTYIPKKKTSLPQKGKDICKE
Protocol: Leukotriene Receptor Binding Assay (12c01)
The in vitro LTD4 receptor binding assay is carried out as follows:
Specific binding of titrated LTD4 to a fixed number of guinea pig lung receptors, isolated from guinea pig lung membrane, is measured in the presence and absence of test compound. The initial screening dose (1×10^-5 M is considered active if the specific binding of LTD4 is reduced by 45% or more. Active compounds are tested in a dose-response manner to determine IC50 values.

[3] = target: T2, guinea pig ileum (LTD4-induced contraction) (Cavia porcellus, UniProt Q2NNR5); assay: LTD4 Antagonism in Guinea Pig Ileum; assay type: cell-based; settings: pA2, Schild analysis
T2 construct: Fresh segments of guinea pig ileum; from tissue; host or cells: guinea pig ileum segments
T2 sequence (Q2NNR5 1-340): T1 sequence (Q2NNR5 1-340)
Protocol: LTD4 Antagonism in Guinea Pig Ileum
Fresh segments of guinea pig ileum were suspended in 2 ml. tissue baths containing oxygenated modified Tyrodes solution. After an equilibration period, an agonist dose-response curve was generated by exposing each tissue to 4 different LTD4 doses and measuring the ensuing contractile heights. The ileum segments were washed and rested between exposures to agonist. Following this, the tissues were incubated with a single concentration of test compound and the agonist dose-response procedure was repeated. The dose ratio is a measure of the antagonist's ability to shift the agonist dose-response curve to the right. It is derived as the concentration of agonist necessary to reach a given response level in the presence (A') versus the absence (A) of antagonist. For example, if the test concentration of compound had no effect on the agonist-induced response (A'=A) the dose-ratio would approximate 1. […] One dose-ratio value is determined for each strip of ileum used to test antagonist. […] Schild analysis examines the linearity of the function described by the dose-ratios written as log [(A'/A)-1] versus antagonist concentration. If the linearity is […] and the slope approximates 1, inhibition is considered to be competitive. The pA2 is the negative log of the antagonist concentration required to produce a dose-ratio of 2. This value is considered to be a measure of the affinity of the competitive antagonist.

[4] = target: T3, LTB4 receptor (Homo sapiens, UniProt Q15722); assay: LTB4 Receptor Binding Assay (human neutrophils); settings: LTB4 Antagonism, 0.6 nano M (3H) LTB4, 0° C., 45 minutes
T3 construct: Neutrophils were purified from venous blood of normal human donors; endogenous in cells; host or cells: human blood neutrophils
Protocol: Preparation of Human Neutrophils
Neutrophils were purified from venous blood of normal human donors using standard techniques of dextran sedimentation, centrifugation on Histopaque sterile solution (Sigma) and hypotonic lysis of erythrocytes (Boyum, A., Isolation of Leukocytes from Human Blood: Further Observations. Scand. J. Lab. Clin. Invest. 21 (Suppl. 97): 31, 1968). The purity of isolated neutrophils was ≥95%.
LTB4 Receptor Binding Assay
Neutrophils (4-6×10^6) in 1 ml Hanks' balanced salt solution containing 10 mM HEPES buffer (HBSS), pH 7.4 and […] nordihydroguaiaretic acid were incubated with 0.6 nano M (^3 H) LTB4 in the presence or absence of test compounds. The incubation was carried out at 0° C. for 45 minutes and terminated by adding 5 ml of ice-cold HBSS followed by rapid filtration of incubation mixture under vacuum through GF/C glass fiber filters. The filters were further washed with 10 ml HBSS and radioactivity was determined. Specific binding was defined as the difference between total binding and nonspecific binding which was not displaced by 10^-7 M unlabeled LTB4. All data refer to specific binding.

T3 sequence (Q15722 whole entry): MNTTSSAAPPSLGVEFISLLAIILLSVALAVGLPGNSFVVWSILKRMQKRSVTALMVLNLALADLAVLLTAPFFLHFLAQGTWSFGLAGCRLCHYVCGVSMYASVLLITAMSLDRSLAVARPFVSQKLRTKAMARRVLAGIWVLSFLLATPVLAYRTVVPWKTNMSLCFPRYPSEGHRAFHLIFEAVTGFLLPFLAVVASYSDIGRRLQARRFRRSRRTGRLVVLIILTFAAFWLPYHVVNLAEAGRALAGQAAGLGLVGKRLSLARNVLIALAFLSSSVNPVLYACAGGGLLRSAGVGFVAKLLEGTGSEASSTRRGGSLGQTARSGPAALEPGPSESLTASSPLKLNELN

SMILES | In Vivo Bronchoconstriction Assay (% Inhibition at 5 mpk. IV) [1] | IC50 [2] | Kb [3] | IC50 [4]
CCCc1c(OCCCSCC2COC(CCC(=O)O)(c3ccccc3)S2)ccc(C(C)=O)c1O (stereo not drawn) [Example 70, 4-[[[3-(4-Acetyl-3-hydroxy-2-propylphenoxyl]propyl]thio]methyl]-2-phenyl-1,3-oxathiolane-2-propanoic acid] | 59.2% | 6240 nM | 26.9 nM | –
CCCc1c(OCCCSCC2CSC(C)(CCCC(=O)O)S2)ccc(C(C)=O)c1O (stereo not drawn) [Example 61, 4-[[[3-(4-Acetyl-3-hydroxy-2-propylphenoxy)propyl]thio]methyl]-2-methyl-1,3-dithiolane-2-butanoic acid] | 95.6% | 5020 nM | 9.55 nM | –
CCCc1c(OCCCSCC2COC(C)(CCC(=O)O)S2)ccc(C(C)=O)c1O (stereo not drawn) [Example 38, 4-[[[3-(4-Acetyl-3-hydroxy-2-propylphenoxy)propyl]thio]methyl]-2-methyl-1,3-oxathiolane-2-propanoic acid] | 87.2% | 9370 nM | 14.5 nM | –
CCCc1c(OCCCSCC2COC(C)(CCCC(=O)O)S2)ccc(C(C)=O)c1O (stereo not drawn) [Example 84] | 85.1% | 7100 nM | – | –
CCCc1c(OCCCSCC2CSC(C)(CCC(=O)O)S2)ccc(C(C)=O)c1O (stereo not drawn) [Example 50, 4-[[[3-(4-Acetyl-3-hydroxy-2-propylphenoxy)propyl]thio]methyl]-2-methyl-1,3-dithiolane-2-propanoic acid] | 91.2% | 9470 nM | 14.5 nM | –
CCCc1c(OCCCSCC2COC(CCC(=O)O)(CCC(=O)O)S2)ccc(C(C)=O)c1O (stereo not drawn) [Example 3, 4-[[[3-(4-Acetyl-3-hydroxy-2-propylphenoxy)propyl]thio]methyl]-1,3-oxathiolane-2,2-dipropanoic acid] | 96.9% | 3560 nM | 21.4 nM | –
CCCc1c(OCCCSCC2CSC(C)(CCCC(=O)O)S2)ccc(C(C)=O)c1OC (stereo not drawn) [Example 81, 4-[[[3-(4-Acetyl-3-methoxy-2-propylphenoxy)propyl]thio]methyl]-2-methyl-1,3-dithiolane-2-butanoic acid] | – | – | – | 60 nM
CCCc1c(OCCCSCC2CSC(CCC(=O)O)(CCC(=O)O)S2)ccc(C(C)=O)c1O (stereo not drawn) [Example 35, 4-[[[3-(4-Acetyl-3-hydroxy-2-propylphenoxy)propyl]thio]methyl]-1,3-dithiolane-2,2-dipropanoic acid] | 93% | 591 nM | 8.91 nM | –

Source: patent publication US4808729A, “Leukotriene LTD4 and LTB4 antagonists” (G. D. Searle & Co., priority 1987, dated 1989)
